# In paper PMC8162438, “Cancer cell-selective modulation of mitochondrial respiration and metabolism by potent organogold(III) dithiocarbamates” (Chemical Science, 2020):
# Tested on: MDA-MB-231
# Assay: Intracellular ROS analysis with DCF-DA (FACS)
# Format: cell-based
# Conditions: for Increase in ROS versus DMSO: 1 hour, DCF-DA
# Source text: We examined the status of intracellular ROS induced by 2a. For this experiment, we employed the used 2′,7′-dichlorofluoresceindiacetate (DCF-DA),[103] a fluorogenic dye with an excitation/emission wavelength of 495/525 nm. DCF-DA enters into the cell and is subsequently deacetylated by cellular esterases where it is then oxidized by ROS to produce a fluorescent compound that can detected with flow cytometry (FACS) using the FITC channel.[104]
# To quantify the amount of ROS produced, we subjected MDA-MB-231 cells to 2a at 10 and 20 μM to assess concentration dependence. Within 1 hour of treatment, we observed a 1.3× increase in ROS in cells treated with 2aversus DMSO (Fig. 11). At twice the concentration, 20 μM, we observed a 1.5× increase in ROS. […] When compared to the H2O2 control, 2a produces similar ROS levels in MDA-MB-231 cells (Fig. 11). […] To further solidify that the DCF-DA fluorescence is from ROS and not other reactive species such as RNS, we pre-treated cells with 10 mM N-acetyl cysteine for 2 h. NAC is a natural ROS scavenger and a key component in the formation of glutathione (GSH), which is a powerful antioxidant.[105,106] After pre-treatment, the cells were subjected to the same concentration of 2a (10 μM) for 1 h.
# 100 µL of dye into 900 µL of DMEM. Note: the working solution of JC-1 should always be prepared fresh and not stored for long-term use. Then, 100 µL/mL of DMEM were added to the cells and incubated at 37 °C for 20 minutes. Prior to imaging, the media was removed and replaced with room temperature PBS (2 mL). The cells were then visualized using confocal microscopy on a Nikon A1R Inverted Confocal Microscope. […]
# For the wells that were pre-treated with NAC, a stock solution of NAC in DMEM was added at a concentration of 10 mM for 2 h prior to the addition of 2a. […] The cells were then analyzed using FACS with the FITC channel […]
# Mitochondrial Metabolism Analysis with Seahorse XF96 Analysis. […] The optimum conditions were determined to be 30,000 cells/well and an FCCP injection concentration of 0.6 µM. […]
smiles,measurement,setting,value
C[N+](C)=C1[S][Au-2]2([S]1)[c]1ccccc1Cc1cccc[n+]12.F[P-](F)(F)(F)(F)F (stereo not drawn) [2a],Increase in ROS versus DMSO,"MDA-MB-231, 10 μM",1.3 ×
same,Increase in ROS versus DMSO,"MDA-MB-231, 20 μM",1.5 ×
same,ROS levels after NAC pre-treatment,"MDA-MB-231, 10 mM NAC 2 h, then 10 μM for 1 h",no increase in ROS levels
